Data: patent US12252524B2, “GIP/GLP1 co-agonist compounds” (Eli Lilly and Company, priority 2018, dated 2025)
Numbered stars: 1 amine (or outer) side, 2 acyl side, 3 side chain; on linkers, the order of the positions; unused ones are H or OH. Square brackets hold non-standard residues; d marks the D form. Side chains are listed from the residue outwards. Peptide text beside a SMILES is read from it. * marks the point of attachment. C20 diacid = O=C(O)CCCCCCCCCCCCCCCCCCC(=O)*; C18 diacid = O=C(O)CCCCCCCCCCCCCCCCC(=O)*; αMePhe(2-F) = C[C@](N)(Cc1ccccc1F)C(=O)O; γGlu = O=C(O)[C@H](CCC(=O)[*:2])N[*:1]; αMeF = C[C@](N)(Cc1ccccc1)C(=O)O; αMeL = CC(C)C[C@](C)(N)C(=O)O; AEEA = NCCOCCOCC(=O)O; Aib = CC(C)(N)C(=O)O

Columns and labels:
human GLP-1R = human GLP-1R (Homo sapiens, UniProt P43220); test: [125I]-GLP-1 binding (SPA), human GLP-1 receptor; parameters: expressed in transfected cells; crude membranes; conditions: read-out: hGLP1R Ki, (nM) (SEM, n)
Chain of human GLP-1R (P43220 24-463): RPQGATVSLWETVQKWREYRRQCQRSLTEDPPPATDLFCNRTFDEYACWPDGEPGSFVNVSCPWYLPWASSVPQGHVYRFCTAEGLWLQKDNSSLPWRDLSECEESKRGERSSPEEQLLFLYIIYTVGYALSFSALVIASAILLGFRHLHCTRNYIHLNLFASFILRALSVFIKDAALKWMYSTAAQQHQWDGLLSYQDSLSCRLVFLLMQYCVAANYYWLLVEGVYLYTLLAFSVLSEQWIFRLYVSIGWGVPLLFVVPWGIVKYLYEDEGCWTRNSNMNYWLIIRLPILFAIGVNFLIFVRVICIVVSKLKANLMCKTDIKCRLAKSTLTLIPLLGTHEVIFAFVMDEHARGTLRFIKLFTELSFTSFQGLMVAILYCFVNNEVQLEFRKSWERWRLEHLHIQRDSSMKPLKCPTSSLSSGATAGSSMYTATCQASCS
In short: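 Frozen cell pellets are lysed on ice in hypotonic Tris buffer, pH 7.5, homogenized, and centrifuged to a membrane pellet resuspended at about 1 to 3 mg/mL. Binding is then measured in HEPES-based buffer at pH 7.4, and curves are fitted to give IC50 and Ki.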

[1] = molecular target: human GLP-1 receptor (GLP-1R) (Homo sapiens, UniProt P43220); test: cAMP pharmacological functional assay in presence of casein, hGLP-1R; assay type: cell-based; conditions: HEK293 cells expressing hGLP-1R, 0.1% Casein, geometric mean; read-out: hGLP1R cAMP Rel EC50 nM (SEM, n)
Chain of human GLP-1 receptor (GLP-1R) (P43220 24-463): as above

[2] = molecular target: T1, gastric inhibitory peptide receptor (GIPR) (Homo sapiens, UniProt P48546); test: cAMP pharmacological functional assay in presence of casein, hGIPR; assay type: cell-based; conditions: HEK293 cells expressing hGIPR, 0.1% Casein, geometric mean; read-out: hGIPR cAMP Rel EC50 nM (SEM, n)
T1 sequence (P48546 22-466): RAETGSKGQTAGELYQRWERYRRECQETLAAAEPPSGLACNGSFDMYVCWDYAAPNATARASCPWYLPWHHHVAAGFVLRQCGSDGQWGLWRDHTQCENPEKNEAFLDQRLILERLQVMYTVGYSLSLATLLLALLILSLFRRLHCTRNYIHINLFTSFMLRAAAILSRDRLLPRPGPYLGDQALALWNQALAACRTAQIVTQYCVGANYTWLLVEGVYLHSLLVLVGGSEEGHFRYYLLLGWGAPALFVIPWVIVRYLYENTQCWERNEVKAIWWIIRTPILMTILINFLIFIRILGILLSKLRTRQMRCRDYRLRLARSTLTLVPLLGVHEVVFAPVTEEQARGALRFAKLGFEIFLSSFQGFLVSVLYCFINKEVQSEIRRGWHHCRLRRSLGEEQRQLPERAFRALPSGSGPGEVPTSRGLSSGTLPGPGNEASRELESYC

human Gcg receptor = molecular target: T2, human Gcg receptor (Homo sapiens, UniProt P47871); test: [125I]-Glucagon binding (SPA), human Gcg receptor; conditions: read-out: hGLcgR Ki, nM (SEM, n)
T2 construct: expressed in transfected cells; crude membranes
T2 sequence (P47871 26-477): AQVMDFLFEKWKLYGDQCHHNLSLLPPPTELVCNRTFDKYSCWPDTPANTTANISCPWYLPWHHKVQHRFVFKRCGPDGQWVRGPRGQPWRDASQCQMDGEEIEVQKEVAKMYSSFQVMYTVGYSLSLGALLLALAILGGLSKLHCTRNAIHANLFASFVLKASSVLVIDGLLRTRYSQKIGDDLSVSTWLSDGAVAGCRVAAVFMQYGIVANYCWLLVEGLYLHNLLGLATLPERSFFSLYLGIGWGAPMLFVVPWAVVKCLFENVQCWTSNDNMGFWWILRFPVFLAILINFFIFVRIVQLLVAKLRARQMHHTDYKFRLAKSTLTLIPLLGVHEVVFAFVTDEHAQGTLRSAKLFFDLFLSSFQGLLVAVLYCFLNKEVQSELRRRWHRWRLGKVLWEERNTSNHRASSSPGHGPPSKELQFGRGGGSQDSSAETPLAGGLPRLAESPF
In short: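 Scintillation counts are taken after membranes and WGA beads incubate and settle for 12 hours at room temperature. Buffer is 25 mM HEPES, pH 7.4, with CaCl2, MgCl2, bacitracin and Tween-20. Ki values, from four-parameter IC50 fits, are geometric means over independent days.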

human GIP receptor = molecular target: T3, human GIP receptor (Homo sapiens, UniProt P48546); test: [125I]-GIP binding (SPA), human GIP receptor; conditions: read-out: hGIPR Ki, nM (SEM, n)
T3 construct: expressed in transfected cells; crude membranes
T3 sequence (P48546 22-466): T1 sequence (P48546 22-466)

Compound | Ki (human GLP-1R) | EC50 [1] | EC50 [2] | Ki (human Gcg receptor) | Ki (human GIP receptor)
CC[C@H](C)[C@H](NC(=O)[C@H](CCCCN)NC(=O)[C@H](CC(=O)O)NC(=O)[C@H](CC(C)C)NC(=O)[C@H](CC(C)C)NC(=O)[C@@H](NC(=O)[C@H](CO)NC(=O)[C@H](Cc1ccc(O)cc1)NC(=O)[C@H](CC(=O)O)NC(=O)[C@H](CO)NC(=O)[C@@H](NC(=O)[C@H](Cc1ccccc1)NC(=O)[C@@H](NC(=O)CNC(=O)[C@H](CCC(=O)O)NC(=O)C(C)(C)NC(=O)[C@@H](N)Cc1ccc(O)cc1)[C@@H](C)O)[C@@H](C)O)[C@@H](C)CC)C(=O)N[C@@H](C)C(=O)N[C@@H](CCC(N)=O)C(=O)NC(C)(C)C(=O)N[C@@H](C)C(=O)N[C@@H](Cc1ccccc1)C(=O)N[C@H](C(=O)N[C@@H](CCC(=O)O)C(=O)N[C@@H](Cc1ccc(O)cc1)C(=O)N[C@@H](CC(C)C)C(=O)N[C@H](C(=O)N[C@@H](CCC(=O)O)C(=O)NCC(=O)NCC(=O)N1CCC[C@H]1C(=O)N[C@@H](CO)C(=O)N[C@@H](CO)C(=O)N[C@@H](CCCCNC(=O)COCCOCCNC(=O)COCCOCCNC(=O)CC[C@H](NC(=O)CCCCCCCCCCCCCCCCCCC(=O)O)C(=O)O)C(=O)N[C@@H](C)C(=O)N1CCC[C@H]1C(=O)N1CCC[C@H]1C(=O)N1CCC[C@H]1C(=O)N[C@@H](CO)C(N)=O)[C@@H](C)CC)[C@@H](C)CC [Example 43] (H-Y[Aib]EGTFTSDYSILLDKIAQ[Aib]AFIEYLIEGGPSSK([AEEA-AEEA-γGlu-C20 diacid])APPPS-NH2; N-terminus assumed) | 11.8 nM | 0.862 nM | 0.112 nM | 134 nM | 0.101 nM
CC[C@H](C)[C@H](NC(=O)[C@H](CC(C)C)NC(=O)[C@H](Cc1ccc(O)cc1)NC(=O)[C@H](CCC(=O)O)NC(=O)[C@@H](NC(=O)[C@H](Cc1ccccc1)NC(=O)[C@H](C)NC(=O)C(C)(C)NC(=O)[C@H](CCC(N)=O)NC(=O)[C@H](C)NC(=O)[C@H](CCCCNC(=O)COCCOCCNC(=O)COCCOCCNC(=O)CC[C@H](NC(=O)CCCCCCCCCCCCCCCCCCC(=O)O)C(=O)O)NC(=O)[C@H](CCC(=O)O)NC(=O)[C@H](CC(=O)O)NC(=O)[C@H](CC(C)C)NC(=O)C(C)(C)NC(=O)[C@@H](NC(=O)[C@H](CO)NC(=O)[C@H](Cc1ccc(O)cc1)NC(=O)[C@H](CC(=O)O)NC(=O)[C@H](CO)NC(=O)[C@@H](NC(=O)[C@](C)(Cc1ccccc1)NC(=O)[C@@H](NC(=O)CNC(=O)[C@H](CCC(=O)O)NC(=O)C(C)(C)NC(=O)[C@@H](N)Cc1ccc(O)cc1)[C@@H](C)O)[C@@H](C)O)[C@@H](C)CC)[C@@H](C)CC)C(=O)N[C@@H](CCC(=O)O)C(=O)NCC(=O)NCC(=O)N1CCC[C@H]1C(=O)N[C@@H](CO)C(=O)N[C@@H](CO)C(=O)NCC(=O)N[C@@H](C)C(=O)N1CCC[C@H]1C(=O)N1CCC[C@H]1C(=O)N1CCC[C@H]1C(=O)N[C@@H](CO)C(N)=O [Example 117] (H-Y[Aib]EGT[αMeF]TSDYSI[Aib]LDEK([AEEA-AEEA-γGlu-C20 diacid])AQ[Aib]AFIEYLIEGGPSSGAPPPS-NH2) | 6.96 nM | 0.0615 nM | 0.0648 nM | 192 nM | 0.0497 nM

Second part, the compound after the results:

Ki (human GLP-1R) | EC50 [1] | EC50 [2] | Ki (human Gcg receptor) | Ki (human GIP receptor) | Compound
1.04 nM | 0.033 nM | 0.0389 nM | 64.1 nM | 0.0264 nM | CC[C@H](C)[C@H](NC(=O)[C@H](CC(C)C)NC(=O)[C@H](Cc1ccc(O)cc1)NC(=O)[C@H](CCC(=O)O)NC(=O)[C@@H](NC(=O)[C@H](Cc1ccccc1)NC(=O)[C@H](C)NC(=O)C(C)(C)NC(=O)[C@H](CCC(N)=O)NC(=O)[C@H](C)NC(=O)[C@H](CCCCNC(=O)COCCOCCNC(=O)COCCOCCNC(=O)CC[C@H](NC(=O)CCCCCCCCCCCCCCCCC(=O)O)C(=O)O)NC(=O)[C@H](CCCCN)NC(=O)[C@H](CC(=O)O)NC(=O)[C@H](CC(C)C)NC(=O)[C@H](CC(C)C)NC(=O)[C@@H](NC(=O)[C@H](CO)NC(=O)[C@H](Cc1ccc(O)cc1)NC(=O)[C@H](CC(=O)O)NC(=O)[C@H](CO)NC(=O)[C@@H](NC(=O)[C@](C)(Cc1ccccc1)NC(=O)[C@@H](NC(=O)CNC(=O)[C@H](CCC(=O)O)NC(=O)C(C)(C)NC(=O)[C@@H](N)Cc1ccc(O)cc1)[C@@H](C)O)[C@@H](C)O)[C@@H](C)CC)[C@@H](C)CC)C(=O)N[C@@H](C)C(=O)NCC(=O)NCC(=O)N1CCC[C@H]1C(=O)N[C@@H](CO)C(=O)N[C@@H](CO)C(=O)NCC(N)=O [Example 309] (H-Y[Aib]EGT[αMeF]TSDYSILLDKK([AEEA-AEEA-γGlu-C18 diacid])AQ[Aib]AFIEYLIAGGPSSG-NH2)
0.815 nM | 0.0388 nM | 0.0233 nM | 27.6 nM | 0.0261 nM | CC[C@H](C)[C@H](NC(=O)[C@H](CC(C)C)NC(=O)[C@H](Cc1ccc(O)cc1)NC(=O)[C@H](CCC(=O)O)NC(=O)[C@@H](NC(=O)[C@H](Cc1ccccc1)NC(=O)[C@H](C)NC(=O)C(C)(C)NC(=O)[C@H](CCC(N)=O)NC(=O)[C@H](C)NC(=O)[C@H](CCCCNC(=O)COCCOCCNC(=O)COCCOCCNC(=O)CC[C@H](NC(=O)CCCCCCCCCCCCCCCCC(=O)O)C(=O)O)NC(=O)[C@H](CCCCN)NC(=O)[C@H](CC(=O)O)NC(=O)[C@H](CC(C)C)NC(=O)[C@H](CC(C)C)NC(=O)[C@@H](NC(=O)[C@H](CO)NC(=O)[C@H](Cc1ccc(O)cc1)NC(=O)[C@H](CC(=O)O)NC(=O)[C@H](CO)NC(=O)[C@@H](NC(=O)[C@](C)(Cc1ccccc1F)NC(=O)[C@@H](NC(=O)CNC(=O)[C@H](CCC(=O)O)NC(=O)C(C)(C)NC(=O)[C@@H](N)Cc1ccc(O)cc1)[C@@H](C)O)[C@@H](C)O)[C@@H](C)CC)[C@@H](C)CC)C(=O)N[C@@H](C)C(=O)NCC(=O)NCC(=O)N1CCC[C@H]1C(=O)N[C@@H](CO)C(=O)N[C@@H](CO)C(=O)NCC(N)=O [Example 313] (H-Y[Aib]EGT[αMePhe(2-F)]TSDYSILLDKK([AEEA-AEEA-γGlu-C18 diacid])AQ[Aib]AFIEYLIAGGPSSG-NH2)
4.53 nM | 0.289 nM | 0.143 nM | 194 nM | 0.0643 nM | CC[C@H](C)[C@H](NC(=O)[C@H](CC(C)C)NC(=O)[C@H](Cc1ccc(O)cc1)NC(=O)[C@H](CCC(=O)O)NC(=O)[C@@H](NC(=O)[C@H](Cc1ccccc1)NC(=O)[C@H](C)NC(=O)C(C)(C)NC(=O)[C@H](CCC(N)=O)NC(=O)[C@H](C)NC(=O)[C@H](CCCCNC(=O)COCCOCCNC(=O)COCCOCCNC(=O)CC[C@H](NC(=O)CCCCCCCCCCCCCCCCCCC(=O)O)C(=O)O)NC(=O)[C@@H](NC(=O)[C@H](CC(=O)O)NC(=O)[C@H](CC(C)C)NC(=O)[C@](C)(CC(C)C)NC(=O)[C@@H](NC(=O)[C@H](CO)NC(=O)[C@H](Cc1ccc(O)cc1)NC(=O)[C@H](CC(=O)O)NC(=O)[C@H](CO)NC(=O)[C@@H](NC(=O)[C@H](Cc1ccccc1)NC(=O)[C@@H](NC(=O)CNC(=O)[C@H](CCC(=O)O)NC(=O)C(C)(C)NC(=O)[C@@H](N)Cc1ccc(O)cc1)[C@@H](C)O)[C@@H](C)O)[C@@H](C)CC)[C@@H](C)O)[C@@H](C)CC)C(=O)N[C@@H](CCC(=O)O)C(=O)NCC(=O)NCC(N)=O [Example 65] (H-Y[Aib]EGTFTSDYSI[αMeL]LDTK([AEEA-AEEA-γGlu-C20 diacid])AQ[Aib]AFIEYLIEGG-NH2; N-terminus assumed)
